Test results as given in patent US8680134B2, “Triptans for the treatment of psoriasis” (priority 2009, dated 2014).
“Also recorded” adds a separate entry of the source.

Tests used:
[1] = test system: psoriasis lesions (scales) on elbow; test: Example 1: topical sumatriptan cream on one elbow, then the other, in a subject with chronic psoriasis; format: in vivo, human; details: cream 0.04% w/w sumatriptan
Method: A subject with chronic psoriasis was administered a cream composed of 0.04% w/w sumatriptan, Dimethicon, Capric Caprylic triglyceride, Mineral oil, Cetyl alcohol & Glyceryl stearate & PEG-75 & Ceteth-20 & Steareth-20, Cetearyl alcohol, Shea butter, Glycerin, Triclosan, Propylene Glycol, Sodium Benzoate, Methylisothiazolinone in water. It was used for five days, once daily, on one elbow. […] No change was observed on psoriasis lesions on the untreated side. The subject was instructed to use the cream once daily on the complementary elbow.

[2] = test system: psoriasis scales on both elbows; test: Example 2: sumatriptan cream on left elbow versus carrier cream on right elbow in the same subject; format: in vivo, human
From the text: A subject with scales on both elbows was recruited. The subject used twice daily for 5 days two different creams: • a.
The abovementioned design eliminates the mild possible therapeutic effect of an emollient on scales and healing. The mode of treatment eliminates as well the possibility of self healing or placebo effect.

For CNS(=O)(=O)Cc1ccc2[nH]cc(CCN(C)C)c2c1 [sumatriptan, 1-[3-(2-Dimethylaminoethyl)-1H-indol-5-yl]-N-methyl-methanesulfonamide], which “skin condition of the treated elbow” value ([1]; once daily for five days, one elbow) is on record?
Its value is “Healthy skin with normalization was noted”.

What about the “scales on the treated elbow” value ([1]; once daily for five days, one elbow, person with chronic psoriasis) of the same molecule?
The value was “disappearance of scales was prominent on the treated side”.

And the “skin normalization on the complementary elbow” value ([1]; once daily, after scale disappearance)?
Its value is “skin turned into normal within the next week”.

What about the “time to scale disappearance on the complementary elbow” value ([1]; once daily, complementary elbow) of the same molecule?
Its value is “three”.

What about the “scales and skin condition of the treated (left) elbow” value ([2]; cream 0.04% w/w sumatriptan (40 mg/100 ml), twice daily, four days after start of use, person) of the same molecule?
Its value is “Disappearance of scales and skin return to normal is noted; also recorded: normalized the skin”.

What about the “duration of remission of psoriasis on the treated elbow” value ([2]; cream 0.04% w/w sumatriptan, left elbow) of the same molecule?
The value was “about one”.

What about the “additional time to completed skin normalization” value ([2]; cream 0.04% w/w sumatriptan, left elbow, counted after the first four days) of the same molecule?
The value was 4 to 5 days.
